One assay concerns the target T1, human EP4 receptor (Homo sapiens, UniProt P35408). Put plainly: Human EP4 Scintillation Proximity Assay (radioligand binding). Further details: expressed in transfected cells; host or cells: CHO cells infected with Semliki Forest Virus (SFV-1) particles; membranes prepared. The settings on record: membranes of CHO cells expressing human EP4; 1.25 nM [3H]-prostaglandin E2; Cheng-Prusoff; read-out: pKi at EP4 receptors (converted). As for the experimental part:
Quantification of radioligand binding by scintillation proximity assay (SPA) is a long-established principle. Briefly, the affinity of compounds for a receptor is assessed by the specific competition between known quantities of radiolabelled ligand compound for that receptor. Increasing concentrations of compound reduce the amount of radiolabel that binds to the receptor. This gives rise to a diminishing scintillation signal from SPA beads coated with membranes that bear the receptor. The signal may be detected with a suitable scintillation counter and the data generated may be analysed with suitable curve-fitting software.
The human EP4 SPA assay (hereafter referred to as ‘the assay’) utilises membranes prepared from Chinese Hamster Ovary (CHO cells) infected with Semliki Forest Virus (SFV). Genetically engineered SFV-1 viral particles containing the genetic sequence of the human EP4 receptor were used to infect CHO cells resulting in expression of th receptor protein in cellular membranes.
Cells washed free of media are homogenised in a pH-buffered medium containing peptidase inhibitors. A suitable buffer is of the following composition: 50 mM HEPES, 1 mM EDTA, 25 μg/ml bacitracin, 100 μM leupeptin, 1 mM PMSF, 2 μM Pepstatin A, pH adjusted to 7.4 with KOH. Following removal of cell debris by a low-speed centrifugation, a pellet of membranes is prepared by a high-speed (48000 g) centrifugation of the resulting supernatant. Membrane suspensions such as that described may be stored at −80° C. until used.
For assay, membranes expressing human EP4 receptors are diluted in a pH-buffered medium and mixed with SPA beads coated with a suitable substance to facilitate the adhesion of membranes to the beads. The concentrations of membrane protein and SPA beads chosen should result in SPA binding signal of at least 300 corrected counts per minute (CCPM) when tritiated radioligand at a concentration close to its Kd (affinity value) is combined with the mixture. Non-specific binding (nsb) may be determined by competition between the radiolabelled ligand and a saturating concentration of unlabelled ligand. In order to quantify the affinity of EP4 receptor ligands, compounds are diluted in a stepwise manner across the wells of a 96-well plate. Radioligand, compound, and unlabelled ligand are then added to a 96-well plate suitable for the measurement of SPA binding signals prior to the addition of bead/membrane mixture to initiate the binding reaction. Equilibrium may be achieved by incubation at room temperature for 120 minutes prior to scintillation counting. The data so generated may be analysed by means of a computerised curve-fitting routine in order to quantify the concentration of compound that displaces 50% of the specific radioligand binding (IC50). The affinity (pKi) of the compound may be calculated from the IC50 by application of the Cheng-Prusoff correction. Suitable reagents and protocols are: reaction buffer containing 50 mM HEPES, 10 mM MgCl2, pH adjusted to 7.4 with KOH; SPA beads coated with wheatgerm agglutinin; 1.25 nM [^3H]-prostaglandin E2 as radioligand; 10 μM prostaglandin E2 as unlabelled ligand; a three-fold dilution series of compound starting at 10 μM and ending at 0.3 nM is adequate.
T1 sequence (P35408 whole entry): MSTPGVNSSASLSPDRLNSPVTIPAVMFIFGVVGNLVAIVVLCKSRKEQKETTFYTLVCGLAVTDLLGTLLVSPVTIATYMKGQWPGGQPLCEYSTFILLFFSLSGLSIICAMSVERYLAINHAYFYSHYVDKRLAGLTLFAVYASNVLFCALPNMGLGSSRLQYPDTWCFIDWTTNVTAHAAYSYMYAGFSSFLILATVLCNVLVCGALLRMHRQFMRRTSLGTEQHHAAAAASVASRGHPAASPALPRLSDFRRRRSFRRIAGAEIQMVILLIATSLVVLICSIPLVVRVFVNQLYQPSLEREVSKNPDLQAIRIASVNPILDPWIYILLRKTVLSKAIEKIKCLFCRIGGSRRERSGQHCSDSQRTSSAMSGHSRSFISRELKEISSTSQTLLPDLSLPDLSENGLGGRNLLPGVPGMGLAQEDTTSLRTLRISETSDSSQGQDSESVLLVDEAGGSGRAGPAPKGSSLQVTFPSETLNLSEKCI
For `COc1ccc2[nH]c(C)c(CC(=O)Nc3cc(C)ccc3C(=O)O)c2c1` [Example 1, 2-{[(5-methoxy-2-methyl-1H-indol-3-yl)acetyl]amino}-4-methylbenzoic acid], the Ki was not above 100 nM. On to `Cc1ccc(C(=O)O)c(NC(=O)Cc2c[nH]c3ccccc23)c1` [Example 2, 2-[(1H-indol-3-ylacetyl)amino]-4-methylbenzoic acid], for which the Ki is not above 100 nM. On the same count and under the same terms, next, `Cc1ccc(C(=O)O)c(NC(=O)Cc2c(C)[nH]c3ccccc23)c1` [Example 3, 4-methyl-2-{[(2-methyl-1H-indol-3-yl)acetyl]amino}benzoic acid]: not above 100 nM; `Cc1ccc(C(=O)O)c(NC(=O)Cc2c[nH]c3ccc(F)cc23)c1` [Example 4, 2-{[(5-fluoro-1H-indol-3-yl)acetyl]amino}-4-methylbenzoic acid]: not above 100 nM. Regarding `Cc1ccc(C(=O)O)c(NC(=O)Cc2c[nH]c3ccc(Br)cc23)c1` [Example 6, 2-{[(5-bromo-1H-indol-3-yl)acetyl]amino}-4-methylbenzoic acid], the Ki is not above 100 nM. On the same count and under the same terms, to `COc1ccc2[nH]cc(CC(=O)Nc3cc(C)ccc3C(=O)O)c2c1` [Example 7, 2-{[(5-methoxy-1H-indol-3-yl)acetyl]amino}-4-methylbenzoic acid] belongs not above 100 nM; to `Cc1ccc(C(=O)O)c(NC(=O)Cc2c(-c3ccccc3)[nH]c3ccccc23)c1` [Example 9, 4-methyl-2-{[(2-phenyl-1H-indol-3-yl)acetyl]amino}benzoic acid], not above 100 nM; to `COc1ccc2[nH]c(C)c(CC(=O)Nc3cc(F)ccc3C(=O)O)c2c1` [Example 10, 4-fluoro-2-{[(5-methoxy-2-methyl-1H-indol-3-yl)acetyl]amino}benzoic acid], not above 100 nM. With `COc1ccc2[nH]c(C)c(CC(=O)Nc3cc(Cl)ccc3C(=O)O)c2c1` [Example 11, 4-chloro-2-{[(5-methoxy-2-methyl-1H-indol-3-yl)acetyl]amino}benzoic acid], the Ki is not above 100 nM. Regarding `COc1ccc2[nH]c(C)c(CC(=O)Nc3cc([N+](=O)[O-])ccc3C(=O)O)c2c1` [Example 12, 2-{[(5-methoxy-2-methyl-1H-indol-3-yl)acetyl]amino}-4-nitrobenzoic acid], the Ki is not above 100 nM.

Regarding `COc1ccc2[nH]c(C)c(CC(=O)Nc3ccccc3C(=O)O)c2c1` [Example 13, 2-{[(5-methoxy-2-methyl-1H-indol-3-yl)acetyl]amino}benzoic acid], the Ki is not above 100 nM. `COc1ccc2[nH]c(C)c(CC(=O)Nc3cc(C(F)(F)F)ccc3C(=O)O)c2c1` [Example 17, 2-{[(5-methoxy-2-methyl-1H-indol-3-yl)acetyl]amino}-4-(trifluoromethyl)benzoic acid]: the Ki was not above 100 nM.

For the molecule `COc1cc2[nH]c(C)c(CC(=O)Nc3cc(C)ccc3C(=O)O)c2cc1OC` [Example 20, 2-{[(5,6-dimethoxy-2-methyl-1H-indol-3-yl)acetyl]amino}-4-methylbenzoic acid], the Ki was not above 100 nM.

On to `Cc1ccc(C(=O)O)c(NC(=O)Cc2c(C)[nH]c3ccc(Cl)cc23)c1` [Example 21, 2-{[(5-chloro-2-methyl-1H-indol-3-yl)acetyl]amino}-4-methylbenzoic acid], for which the Ki is not above 100 nM. On the same count and under the same terms, to `CCc1ccc(C(=O)O)c(NC(=O)Cc2c(C)[nH]c3ccc(OC)cc23)c1` [Example 26, 4-ethyl-2-{[(5-methoxy-2-methyl-1H-indol-3-yl)acetyl]amino}benzoic acid] belongs not above 100 nM.

A further assay concerns the target T1, human EP4 receptor. Put plainly: [125I]cAMP Scintillation Proximity Assay (cAMP assay), EP4 antagonism. The assay is classed as cell-based. Further details: host or cells: HEK-293 cells. As to conditions: HEK-293 cells expressing recombinant human EP4; method of Arunlakshana and Schild; read-out: pKb at EP4 receptors (converted). How it is done:
The cAMP assay utilises HEK-293 cells expressing the recombinant human EP4 receptor, obtained from Receptor Biology, Inc. Beltsville, Md., USA. The cells were cultured in Dulbecco's Modified Eagle Medium—HAM F12 mix (DMEM-F12), containing 10% heat inactivated-foetal bovine serum (FBS) and 2 mM L-glutamine. The cells were either passaged into fresh medium or used in an assay once 90% confluency as determined visually had been achieved.
The cells were harvested by treatment with Versene, re-suspended in fresh culture medium and plated out to yield approximately 10,000 cells per well of a 96-well plate for overnight culture in culture medium additionally supplemented with 3 μM indomethacin. For assay, the culture medium was replaced with assay medium (DMEM-F12 containing 300 μM isobutylmethylxanthine (IBMX) and 3 μM indomethacin) and incubated for 30 minutes. Following this, antagonist was then added at various concentrations such that an entire agonist concentration-effect curve could be obtained in the presence of a single concentration of the antagonist. […] The amount of cAMP in each well was then determined by [^125I]cAMP scintillation proximity assay using a proprietary kit, obtained from Amersham, Buckinghamshire, UK, and according to the manufacturer's instructions.
Data from cAMP assays were expressed as pmol cAMP per well. […]
(In general: In a scintillation proximity assay essentially only radioactivity close to the scintillant gives light.)
For `COc1ccc2[nH]c(C)c(CC(=O)Nc3cc(C)ccc3C(=O)O)c2c1` [Example 1, 2-{[(5-methoxy-2-methyl-1H-indol-3-yl)acetyl]amino}-4-methylbenzoic acid], the Kb was less than 10 nM.

The values are drawn from patent US7288564B2, “Indole derivatives” (Glaxo Group Limited, priority 2000, dated 2007).
